The source of these data is patent US20250026752A1, “POSITIVE ALLOSTERIC MODULATORS OF THE MUSCARINIC ACETYLCHOLINE RECEPTOR M4” (Vanderbilt University, priority 2021, published 2025).

For this test, the target named is T1, human mAChR M4 (Homo sapiens, UniProt P08173).
T1 construct: expressed in transfected cells; host or cells: CHO-K1 (ATCC), stably expressing hM4 and Gqi5
T1 sequence (P08173 1-479): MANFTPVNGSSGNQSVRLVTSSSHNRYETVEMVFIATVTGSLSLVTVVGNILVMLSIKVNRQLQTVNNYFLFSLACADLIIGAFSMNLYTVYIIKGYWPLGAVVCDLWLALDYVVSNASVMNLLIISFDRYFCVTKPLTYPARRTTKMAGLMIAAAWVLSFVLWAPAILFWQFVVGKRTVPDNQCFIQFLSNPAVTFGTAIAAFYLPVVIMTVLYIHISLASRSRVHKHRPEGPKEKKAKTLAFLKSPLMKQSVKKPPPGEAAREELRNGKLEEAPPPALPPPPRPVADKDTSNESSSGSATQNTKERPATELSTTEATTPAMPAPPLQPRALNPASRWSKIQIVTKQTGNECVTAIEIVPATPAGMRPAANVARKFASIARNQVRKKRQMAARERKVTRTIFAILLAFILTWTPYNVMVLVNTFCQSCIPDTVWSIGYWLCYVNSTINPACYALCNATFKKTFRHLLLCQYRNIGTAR
As to the kind of experiment: mAChR M4 cell-based functional assay: calcium flux (Fluo-4, FDSS), positive allosteric modulator activity on the EC20 acetylcholine response, hM4-Gqi5 CHO-K1 cells. Particulars: for Emax at 30 µM: CHO-K1, human M4, % ACh maximum at 30 μM; for EC50: human M4, PAM activity on EC20 acetylcholine response, calcium flux, read-out: Human M4 EC50. The procedure, abridged: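 Potentiation was taken as the concentration-dependent rise in the EC20 acetylcholine calcium response, fitted by a four-parameter logistic with EC20 as baseline. Fluo-4-loaded hM4-Gqi5 CHO-K1 cells received 11-point, threefold-diluted compound before acetylcholine at 144 s; FDSS read at 1 Hz.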
Background: A change in cytosolic calcium serves as a functional read-out for many receptors and channels.

The term Emax denotes the greatest response seen or fitted, relative to the assay's reference. The EC50 is the concentration that produces a half-maximal response. As for `Cc1ccc2nc(Cl)nc(N3CCc4ncc(-c5cnn(C6CC6)c5)cc4C3)c2c1` [Compound 30, 2-chloro-4-[3-(1-cyclopropylpyrazol-4-yl)-7,8-dihydro-5H-1,6-naphthyridin-6-yl]-6-methyl-quinazoline], the Emax at 30 µM came to 113% and the EC50 is 510 nM.
As for `Cn1nccc1Nc1cnc2c(c1)CN(c1nc(N3CCOCC3)nc3ccc(F)cc13)CC2` [Compound 185, 6-(6-fluoro-2-morpholino-quinazolin-4-yl)-N-(2-methylpyrazol-3-yl)-7,8-dihydro-5H-1,6-naphthyridin-3-amine], the Emax at 30 µM was determined as 83% and the EC50 was determined as 390 nM.
For `Clc1ccc2ncnc(N3CCc4ncc(N5CCCn6nccc65)cc4C3)c2c1` [Compound 83, 6-chloro-4-[3-(6,7-dihydro-5H-pyrazolo[1,5-a]pyrimidin-4-yl)-7,8-dihydro-5H-1,6-naphthyridin-6-yl]quinazoline], in that order: 108% and 20 nM.
`Cc1nc(N2CCc3ncc(-c4cc(C(F)(F)F)nn4C)cc3C2)c2cc(Cl)ccc2n1` [Compound 257, 6-chloro-2-methyl-4-(3-(1-methyl-3-(trifluoromethyl)-1H-pyrazol-5-yl)-7,8-dihydro-1,6-naphthyridin-6(5H)-yl)quinazoline]: the Emax at 30 µM came to 87% and the EC50 amounted to 830 nM.
On to `CN1CCN(c2cnc3c(c2)CN(c2ncnc4cc(F)c(F)cc24)CC3)CC12COC2` [Compound 284, 8-(6-(6,7-difluoroquinazolin-4-yl)-5,6,7,8-tetrahydro-1,6-naphthyridin-3-yl)-5-methyl-2-oxa-5,8-diazaspiro[3.5]nonane], for which the Emax at 30 µM was 104% and the EC50 was 500 nM.
With `Fc1ccc2ncnc(N3CCc4ncc(Oc5ccccc5F)cc4C3)c2c1` [Compound 113, 6-fluoro-4-[3-(2-fluorophenoxy)-7,8-dihydro-5H-1,6-naphthyridin-6-yl]quinazoline], the Emax at 30 µM amounted to 69% and the EC50 was found to be 160 nM.
With `CC1CN(c2ncnc3ccc(F)cc23)Cc2cc(C(F)(F)F)cnc21` (racemic) [Compound 115, 6-fluoro-4-[8-methyl-3-(trifluoromethyl)-7,8-dihydro-5H-1,6-naphthyridin-6-yl]quinazoline], the Emax at 30 µM stood at 93% and the EC50 was 60 nM.
The corresponding values for `Cc1ncc(-c2cnc3c(c2)CN(c2nc(C(F)(F)F)nc4ccc(F)cc24)CC3)s1` [Compound 66, 5-[6-[6-fluoro-2-(trifluoromethyl)quinazolin-4-yl]-7,8-dihydro-5H-1,6-naphthyridin-3-yl]-2-methyl-thiazole] are 35% and 810 nM.
In the case of `Cc1nc(N2CCc3ncc(C4CC4)cc3C2)c2cc(C(F)(F)F)ccc2n1` [Compound 165, 4-(3-cyclopropyl-7,8-dihydro-5H-1,6-naphthyridin-6-yl)-2-methyl-6-(trifluoromethyl)quinazoline], the Emax at 30 µM is 77% and the EC50 is 1810 nM.
For the molecule `Clc1ccc2nc(Cl)nc(N3CCc4ncc(N5CCCn6nccc65)cc4C3)c2c1` [Compound 89, 2,6-dichloro-4-[3-(6,7-dihydro-5H-pyrazolo[1,5-a]pyrimidin-4-yl)-7,8-dihydro-5H-1,6-naphthyridin-6-yl]quinazoline], the Emax at 30 µM amounted to 109% and the EC50 was 250 nM.
With `Cc1nc(N2CCc3ncc(-c4cnn(C)c4)cc3C2)c2cc(Cl)ccc2n1` [Compound 46, 6-chloro-2-methyl-4-[3-(1-methylpyrazol-4-yl)-7,8-dihydro-5H-1,6-naphthyridin-6-yl]quinazoline], the Emax at 30 µM worked out at 97% and the EC50 is 170 nM.
Consider `Cn1cc(-c2cnc3c(c2)CN(c2ncnc4ccc(F)cc24)CC3)cn1` [Compound 15, 6-fluoro-4-[3-(1-methylpyrazol-4-yl)-7,8-dihydro-5H-1,6-naphthyridin-6-yl]quinazoline], for which the Emax at 30 µM came to 105% and the EC50 came to 40 nM.
Turning to `Fc1ccc2nc(NC3CC3)nc(N3CCc4ncc(C(F)(F)F)cc4C3)c2c1` [Compound 196, N-cyclopropyl-6-fluoro-4-[3-(trifluoromethyl)-7,8-dihydro-5H-1,6-naphthyridin-6-yl]quinazolin-2-amine], the Emax at 30 µM was determined as 98% and the EC50 was determined as 410 nM.
In the case of `Cc1ccccc1-c1cnc2c(c1)CN(c1ncnc3ccc(Cl)cc13)CC2` [Compound 300, 6-chloro-4-(3-(o-tolyl)-7,8-dihydro-1,6-naphthyridin-6(5H)-yl)quinazoline], the Emax at 30 µM stood at 96% and the EC50 turned out to be 3600 nM.
Take `Cn1nccc1-c1cnc2c(c1)CN(c1ncnc3ccc(Cl)cc13)CC2` [Compound 39, 6-chloro-4-[3-(2-methylpyrazol-3-yl)-7,8-dihydro-5H-1,6-naphthyridin-6-yl]quinazoline]: the Emax at 30 µM was determined as 84% and the EC50 was determined as 60 nM.
`COc1cc2c(N3CCc4ncc(-c5cn(C)nc5C)cc4C3)nc(Cl)nc2cc1F` [Compound 60, 2-chloro-4-[3-(1,3-dimethylpyrazol-4-yl)-7,8-dihydro-5H-1,6-naphthyridin-6-yl]-7-fluoro-6-methoxy-quinazoline]: the Emax at 30 µM came to 52% and the EC50 is 510 nM.
As to `Fc1ccc2nc(NC3CCOC3)nc(N3CCc4ncc(C(F)(F)F)cc4C3)c2c1` (stereo not drawn) [Compound 202, 6-fluoro-N-tetrahydrofuran-3-yl-4-[3-(trifluoromethyl)-7,8-dihydro-5H-1,6-naphthyridin-6-yl]quinazolin-2-amine], the Emax at 30 µM was 92% and the EC50 was 300 nM.
In the case of `Cc1nc(N2CCc3ncc(Nc4cccnc4F)cc3C2)c2cc(Cl)ccc2n1` [Compound 72, 6-(6-chloro-2-methyl-quinazolin-4-yl)-N-(2-fluoro-3-pyridyl)-7,8-dihydro-5H-1,6-naphthyridin-3-amine], the Emax at 30 µM was 84% and the EC50 is 490 nM.
Turning to `Cc1nc(N2CCc3ncc(-c4ccc(C5CC5)nc4)cc3C2)c2cc(F)ccc2n1` [Compound 25, 4-[3-(6-cyclopropyl-3-pyridyl)-7,8-dihydro-5H-1,6-naphthyridin-6-yl]-6-fluoro-2-methyl-quinazoline], the Emax at 30 µM is 96% and the concentration giving a half-maximal response (EC50) turned out to be 310 nM.
As to `Cc1nc(N2CCc3ncc(N4CCN(C)C(=O)C4)cc3C2)c2cc(Cl)ccc2n1` [Compound 274, 4-(6-(6-chloro-2-methylquinazolin-4-yl)-5,6,7,8-tetrahydro-1,6-naphthyridin-3-yl)-1-methylpiperazin-2-one], the Emax at 30 µM was 82% and the EC50 came to 650 nM.
Turning to `Cc1nc(N2CCc3ncc(-c4cnc(C)s4)cc3C2)c2cc(F)ccc2n1` [Compound 23, 5-[6-(6-fluoro-2-methyl-quinazolin-4-yl)-7,8-dihydro-5H-1,6-naphthyridin-3-yl]-2-methyl-thiazole], the Emax at 30 µM is 93% and the EC50 is 170 nM.
As for `Fc1cc2ncnc(N3CCc4ncc(C(F)(F)F)cc4C3)c2cc1F` [Compound 151, 6,7-difluoro-4-[3-(trifluoromethyl)-7,8-dihydro-5H-1,6-naphthyridin-6-yl]quinazoline], the Emax at 30 µM came to 102% and the EC50 amounted to 110 nM.
As to `Fc1ccc2ncnc(N3CCc4ncc(N5CCCn6nc(C7CC7)cc65)cc4C3)c2c1` [Compound 280, 4-(3-(2-cyclopropyl-6,7-dihydropyrazolo[1,5-a]pyrimidin-4(5H)-yl)-7,8-dihydro-1,6-naphthyridin-6(5H)-yl)-6-fluoroquinazoline], the Emax at 30 µM amounted to 90% and the EC50 amounted to 390 nM.
Regarding `Cc1nc(N2CCc3ncc(N4CCN(C)C5(COC5)C4)cc3C2)c2cc(Cl)ccc2n1` [Compound 285, 8-(6-(6-chloro-2-methylquinazolin-4-yl)-5,6,7,8-tetrahydro-1,6-naphthyridin-3-yl)-5-methyl-2-oxa-5,8-diazaspiro[3.5]nonane], the Emax at 30 µM turned out to be 98% and the EC50 turned out to be 580 nM.
Take `COc1ccc2nc(C)nc(N3CCc4ncc(-c5cnc(F)cc5C)cc4C3)c2c1` [Compound 312, 4-(3-(6-fluoro-4-methylpyridin-3-yl)-7,8-dihydro-1,6-naphthyridin-6(5H)-yl)-6-methoxy-2-methylquinazoline]: the Emax at 30 µM worked out at 76% and the EC50 was 150 nM.
On to `Cc1ncc(-c2cnc3c(c2)CN(c2ncnc4ccc(F)cc24)CC3)s1` [Compound 27, 5-[6-(6-fluoroquinazolin-4-yl)-7,8-dihydro-5H-1,6-naphthyridin-3-yl]-2-methyl-thiazole], for which the Emax at 30 µM was 110% and the EC50 was found to be 170 nM.
With `Fc1ccc2nc(C(F)(F)F)nc(N3CCc4ncc(N5CCOc6ncccc65)cc4C3)c2c1` [Compound 112, 1-[6-[6-fluoro-2-(trifluoromethyl)quinazolin-4-yl]-7,8-dihydro-5H-1,6-naphthyridin-3-yl]-2,3-dihydropyrido[2,3-b][1,4]oxazine], the Emax at 30 µM is 92% and the EC50 came out at 380 nM.
